Reference: PMC5402281, “Functional, thermodynamics, structural and biological studies of in silico-identified inhibitors of Mycobacterium tuberculosis enoyl-ACP(CoA) reductase enzyme” (Scientific Reports, 2017)
Where two headings read alike, the source gives them in different places. Marks after values point to notes of the source that are not given here.

Key:
M. tuberculosis H37Rv = assay: microbe, parasite or virus in culture; assay type: cell-based; conditions: Mycobacterium tuberculosis
[1] = assay type: physicochemical
Method: (§1) An HPLC equipped with a quaternary pump, DAD detector, degasser, column oven and an automatic injection system was used in this set of experiments (Thermo® Scientific, Sunnyvale, USA). Stock standard solutions (1 M) of Labio_16 and Labio_17 were prepared by diluting each standard in DMSO. Standard solutions were prepared by diluting the stock solution in fish water, yielding final concentrations of 0.625, 1.25, 2.50, 5.0 and 10.0 μM for Labio_16; and 0.625, 1.25, 2.50, 5.0, 10.0 and 20 μM for Labio_17 in a final volume of 0.5 mL.
(§2) Chromatographic separations were carried out using a Nucleodur C-18 column at 20 °C. The mobile phase was a 20:80% mixture of 0.1% glacial acetic acid and acetonitrile:methanol 1:1 (v/v) for Labio_16, and a mixture of 20:80% of 20 mM of ammonium acetate and acetonitrile:methanol 1:1 (v/v) for Labio_17. A flow rate of 1.5 mL min^−1 was employed in isocratic mode, with run time of 7 minutes for Labio_16 and 12 minutes for Labio_17. The DAD detector was set at 300 nm and a full scan was continuously performed. The calibration curve for both analytes presented a correlation coefficient above 0.99.

in vitro [2] = assay type: cell-based
Method: (§3) Cellular viability determination after incubation with the test compounds (Labio_16 and Labio_17) was performed essentially as described elsewhere. Briefly, Vero (and Hacat/RAW) cells were grown in DMEM media supplemented with 10% inactivated fetal bovine serum and 1% penicillin-streptomycin. The cells were maintained in culture bottles at 37 °C in humidified atmosphere with 5% CO2. Cells were seeded at 3 × 10^3 cells per well (for Hacat/RAW or Vero) in a 96-well microtiter plate and incubated for 24 hours to adhere. Medium was carefully aspirated and replaced with 90 μL DMEM, and 10 μL of stocks of the chemical compounds were added to a final concentration of 20 μM (DMSO 2.0%, v/v). After 72 h at 37 °C under 5% of CO2, the cultures were incubated with 3-(4,5-dimethylthiazol-2-yl)-2,5-diphenyltetrazolium bromide (MTT) (1 mg mL^−1) for 3 h. The formazan crystals were dried at room temperature for at least 24 h and dissolved in DMSO. The absorbance was measured at 595 nm (Spectra Max M2e, Molecular Devices, USA). The percentage of cell viability for treated groups was reported considering the control wells (DMSO 0.5%-treated) as 100% of cell viability: cell viability (%) = (absorbance of treated wells/absorbance of control wells) x 100. Data are expressed as mean of cell viability ± standard error of mean of three independent experiments performed in triplicate.

Zebrafish embryos [3] = assay: Zebrafish embryo toxicity: survival, hatching, heart frequency; assay type: in vivo, Danio rerio; conditions: for cardiotoxicity in the Zebrafish model: overall conclusion; for survival rate: treated from 2 hpf for 5 days, vs controls, Kaplan Meier
Method: Wild-type Zebrafish embryos were obtained from natural mating of adult Danio rerio bred[25] and maintained in an automated re-circulating tank system (Tecniplast, Italy). At 2 hpf (hours post fertilization) embryos were treated with different concentrations of compounds Labio_16 and Labio_17. Both compounds were diluted in DMSO for stock solutions of […] and diluted in fish water (Reverse Osmosis equilibrated with Instant Ocean Salt) to final concentrations of 1.0 μM, 3.5 μM and 7.0 μM (compound Labio_16) and 0.1 μM, 1.0 μM, 7.5 μM and 13.0 μM (compound Labio_17). Since both compounds were diluted first in DMSO, there were two control groups for each treatment, one only with fish water and the other one with the highest concentration of DMSO used in the treatments (0.035% for Labio_16 treatment and 0.065% for Labio_17 treatment).
Embryos were maintained in a 96 well plate during the 5 days of treatment inside an incubator with light-dark cycle of 14–10 hours and controlled temperature (28 °C)[25]. The solution pH and conductivity were monitored. Survival and hatching efficiency were accompanied under a stereomicroscope (OlympusSZ4045) every day, as well as developmental toxicity. Data for survival evaluation were analysed by Kaplan Meier survival test.
At 2 dpf (days post fertilization) and 5 dpf embryos heart frequency were quantified. For this, a single embryo per larvae was placed under a stereomicroscope (OlympusSZ4045) in petri-dishes with system water and their heart rate was monitored for 60 seconds by a blind experimenter (N = 10 in triplicates)[25][26]. For all procedures, temperature was kept constant at 28 °C. Data were analysed using One-way ANOVA, followed by Tukey multiple comparisons test.

[4] = test system: M. tuberculosis H37Rv in infected RAW 264.7 macrophages; assay: Intracellular activity in M. tuberculosis-infected macrophages (CFU); assay type: cell-based, Mycobacterium tuberculosis; conditions: 5 μM; for Mean log CFU/well ± SEM: 5 days of incubation; for nature of intracellular activity (bactericidal / bacteriostatic): 5 days, vs early and late control
in vitro [5] = assay type: cell-based, murine; conditions: mouse
Method: as §3

Zebrafish embryos [6] = conditions: zebrafish (Danio rerio)
Method: as §1, §2

[7] = 216 h, 7 days + 48 h resazurin, read-out: MIC H37Rv
[8] = conversion of μg mL^−1 value, read-out: MIC H37Rv converted to

SMILES	MIC (M. tuberculosis H37Rv; [7])	MIC (M. tuberculosis H37Rv; [8])	decrease in compound concentration in stability test [1]	viability at 72 h, 20 µM (in vitro [2]; African green monkey)	viability at 72 h, 20 µM (in vitro [2]; human)	heart frequency at 5 dpf (Zebrafish embryos [3]; 0.1 μM and 1.0 μM against H2O control)	heart frequency at 5 dpf (Zebrafish embryos [3]; 1.0 μM compared to DMSO control)	cardiotoxicity in the Zebrafish model (Zebrafish embryos [3])	survival rate (Zebrafish embryos [3])	hatching efficiency (Zebrafish embryos [3]; two highest concentrations, 13.0 μM and 7.5 μM)	Mean log CFU/well ± SEM [4]	nature of intracellular activity (bactericidal / bacteriostatic) [4]	viability at 72 h, 20 µM (in vitro [5])	decrease of compound in in vivo assay medium (Zebrafish embryos [6])	heart frequency at 5 dpf (Zebrafish embryos [3]; 3.5 μM and 7.0 μM against DMSO control)	hatching efficiency (Zebrafish embryos [3]; 1.0, 3.5, 7.0 μM vs controls)	heart frequency at 2 dpf (Zebrafish embryos [3]; all groups, one-way ANOVA)
CCOC(=O)c1ccc2nc(C)cc(Nc3ccc(N4CCCCC4)cc3)c2c1 [Labio_17]	5 µg/mL	12.8 µM	21%	85 ± 8%	84 ± 14%	no difference	no difference	signs of cardiotoxicity	dose-dependent statistical difference	delayed hatching efficiency	3.4 ± 0.1***^++ log CFU/well	bactericidal	98 ± 2%	55 ± 2%			
Cc1ccccc1OCc1nc(-c2ccc(NC(=O)c3cccs3)cc2)no1 [Labio_16]	2.5 µg/mL	6.4 µM	21%	89 ± 12%	104 ± 12%			no cardiotoxicity	statistical difference		3.9 ± 0.1 log CFU/well	bacteriostatic	91 ± 1%	55 ± 2%	a decrease in the heart rate	No difference	no difference
